These are literature values, as cited in patent EP2527351B1, “Lipophosphonoxins, method of their preparation and use” (priority 2011, dated 2012).

For orientation: MIC means the lowest concentration found to suppress growth.

The subject of this data set is Mycobacterium tuberculosis strains. Particulars: multidrug-resistant strains, in vitro; cited from earlier work.

Regarding caprazamycins [CPZs], the MIC is given as 3.13 µg/mL.
